Experimental data published in ChEMBL document CHEMBL4261514, “Interaction of indomethacin with calf thymus DNA: a multi-spectroscopic, thermodynamic and molecular modelling approach” (Medchemcomm, 2017).
Active and inactive are the calls of the source. No cut-off for these calls is given here.

Key:
Format in all cases: nucleic-acid assay
Settings in all cases: Bos taurus
Calf thymus DNA [1] = assay: Binding affinity to calf thymus DNA assessed as hyperchromic shift at 281 nm at 50 uM by UV-visible spectrophotometric method
Calf thymus DNA [2] = assay: Binding affinity to calf thymus DNA by UV-visible spectrophotometric method
Calf thymus DNA [3] = assay: Binding affinity to calf thymus DNA assessed as Stern-Volmer quenching constant at 50 uM at pH 7.2 by spectrofluorophotometric method
Calf thymus DNA [4] = assay: Binding affinity to calf thymus DNA assessed as quenching constant at 50 uM at pH 7.2 by spectrofluorophotometric method
Calf thymus DNA [5] = assay: Binding affinity to calf thymus DNA by isothermal calorimetric titration method
Calf thymus DNA [6] = assay: Inhibition of ethidium bromide binding to calf thymus DNA up to 80 uM by fluorescence assay
Calf thymus DNA [7] = assay: Inhibition of acridine orange binding to calf thymus DNA up to 80 uM by fluorescence assay
Calf thymus DNA [8] = assay: Inhibition of Hoechst 33258 binding to calf thymus DNA up to 70 uM by fluorescence assay
Calf thymus DNA [9] = assay: Binding affinity to calf thymus DNA assessed as iodide quenching by measuring reduction in Stern-Volmer quenching constant at 50 uM by fluorescence assay relative to control; parameters: scale not given: the % may be the effect or the level left
Calf thymus DNA [10] = assay: Binding affinity to calf thymus DNA at 50 uM in presence of NaCl by fluorescence assay
Calf thymus DNA [11] = assay: Binding affinity to calf thymus DNA assessed as melting temperature at 50 uM by UV-visible spectroscopic method (reference value: 66.3 +/- 1 degC)
Calf thymus DNA [12] = assay: Binding affinity to calf thymus DNA assessed as change in viscosity at compound to DNA ratio of 0.2 to 1 by viscometry
Calf thymus DNA [13] = assay: Binding affinity to calf thymus DNA assessed as conformational change up to 100 uM by circular dichroism spectral analysis

Activity (Calf thymus DNA [1]): Active
K (Calf thymus DNA [2]): 9.6 ×10³ L/mol
KSV (Calf thymus DNA [3]): 1.1 ×10³ L/mol
Kq (Calf thymus DNA [4]): 1.1 ×10¹¹ L/mol/s
K (Calf thymus DNA [5]): 5.5 ×10³ /mol
inhibition (Calf thymus DNA [6]): inactive
inhibition (Calf thymus DNA [7]): inactive
inhibition (Calf thymus DNA [8]): Active
Activity (Calf thymus DNA [9]): 19%
Activity (Calf thymus DNA [10]): inactive
Tm (Calf thymus DNA [11]): 68.2 °C
Activity (Calf thymus DNA [12]): inactive
Activity (Calf thymus DNA [13]): inactive
SMILES: COc1ccc2c(c1)c(CC(=O)O)c(C)n2C(=O)c1ccc(Cl)cc1
